From patent US6518243B1, “Desleucyl glycopeptide antibiotics and methods of making same” (Trustees of Princeton University, priority 1999, dated 2003) come the findings set out here.

The test system of experiment [1] is S. epidermidis (ATCC 12228). Nature of the experiment: Zone of inhibition screen, 96 well agar array format. The format is cell-based. Set-up: scale not given here. The conditions noted are these: zone of inhibition relative to 1 mg/ml p-chlorobiphenylvancomycin. Summed up: (§1)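 Antibacterial testing on a 96-well agar array; each compound screened separately.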
The subject of a further experiment is E. faecalis (CL 4877). The experiment is described as above. The conditions noted are these: zone of inhibition relative to 1 mg/ml p-chlorobiphenylvancomycin. Set-up: scale not given here. Type of experiment: cell-based. Summed up: as §1

Turning to `CC1OC(OC2C(Oc3c4cc5cc3Oc3ccc(cc3Cl)C(O)C3NC(=O)C(NC(=O)C5NC(=O)C(CC(N)=O)NC(=O)C(NC(=O)Cn5cnnn5)C(O)c5ccc(c(Cl)c5)O4)c4ccc(O)c(c4)-c4c(O)cc(O)cc4C(C(=O)O)NC3=O)OC(CO)C(O)C2O)CC(C)(NCc2ccc(-c3ccc(Cl)cc3)cc2)C1O` (stereo not drawn) [Compound 228], the “zone score, S. epidermidis ATCC 12228” value in experiment [1] turned out to be 2. The “zone score, E. faecalis CL 4877” value with E. faecalis (CL 4877) amounted to 2.

For `CC1OC(OC2C(Oc3c4cc5cc3Oc3ccc(cc3Cl)C(O)C3NC(=O)C(NC(=O)C5NC(=O)C(CC(N)=O)NC(=O)C(NC(=O)c5ccccc5N)C(O)c5ccc(c(Cl)c5)O4)c4ccc(O)c(c4)-c4c(O)cc(O)cc4C(C(=O)O)NC3=O)OC(CO)C(O)C2O)CC(C)(NCc2ccc(-c3ccc(Cl)cc3)cc2)C1O` (stereo not drawn) [Compound 280], the “zone score, S. epidermidis ATCC 12228” value in experiment [1] was 2. The “zone score, E. faecalis CL 4877” value in the experiment on E. faecalis (CL 4877) was found to be 2.

Regarding `CC1OC(OC2C(Oc3c4cc5cc3Oc3ccc(cc3Cl)C(O)C3NC(=O)C(NC(=O)C5NC(=O)C(CC(N)=O)NC(=O)C(NC(=O)c5cccc(C(F)(F)F)c5)C(O)c5ccc(c(Cl)c5)O4)c4ccc(O)c(c4)-c4c(O)cc(O)cc4C(C(=O)O)NC3=O)OC(CO)C(O)C2O)CC(C)(NCc2ccc(-c3ccc(Cl)cc3)cc2)C1O` (stereo not drawn) [Compound 247], the “zone score, S. epidermidis ATCC 12228” value in experiment [1] is 2. Besides, in the experiment on E. faecalis (CL 4877), the “zone score, E. faecalis CL 4877” value stood at 2.

In the case of `CNC(=O)C=CC(=O)NC1C(=O)NC(CC(N)=O)C(=O)NC2C(=O)NC3C(=O)NC(C(=O)NC(C(=O)O)c4cc(O)cc(O)c4-c4cc3ccc4O)C(O)c3ccc(c(Cl)c3)Oc3cc2cc(c3OC2OC(CO)C(O)C(O)C2OC2CC(C)(NCc3ccc(-c4ccc(Cl)cc4)cc3)C(O)C(C)O2)Oc2ccc(cc2Cl)C1O` (stereo not drawn) [Compound 309], the “zone score, S. epidermidis ATCC 12228” value in experiment [1] was 2. In addition, the “zone score, E. faecalis CL 4877” value with E. faecalis (CL 4877) is recorded as 2.

As for `CC1OC(OC2C(Oc3c4cc5cc3Oc3ccc(cc3Cl)C(O)C3NC(=O)C(NC(=O)C5NC(=O)C(CC(N)=O)NC(=O)C(NC(=O)c5ccc[n+]([O-])c5)C(O)c5ccc(c(Cl)c5)O4)c4ccc(O)c(c4)-c4c(O)cc(O)cc4C(C(=O)O)NC3=O)OC(CO)C(O)C2O)CC(C)(NCc2ccc(-c3ccc(Cl)cc3)cc2)C1O` (stereo not drawn) [Compound 308], the “zone score, S. epidermidis ATCC 12228” value in experiment [1] was determined as 2. For the same compound, the “zone score, E. faecalis CL 4877” value in the experiment with E. faecalis (CL 4877) is 2.

With `CC1OC(OC2C(Oc3c4cc5cc3Oc3ccc(cc3Cl)C(O)C3NC(=O)C(NC(=O)C5NC(=O)C(CC(N)=O)NC(=O)C(NC(=O)CSCCS(=O)(=O)c5ccc(Cl)cc5)C(O)c5ccc(c(Cl)c5)O4)c4ccc(O)c(c4)-c4c(O)cc(O)cc4C(C(=O)O)NC3=O)OC(CO)C(O)C2O)CC(C)(NCc2ccc(-c3ccc(Cl)cc3)cc2)C1O` (stereo not drawn) [Compound 300], in experiment [1], the “zone score, S. epidermidis ATCC 12228” value was 2. Moreover, in the experiment with E. faecalis (CL 4877), the “zone score, E. faecalis CL 4877” value is 2.

With `CC1OC(OC2C(Oc3c4cc5cc3Oc3ccc(cc3Cl)C(O)C3NC(=O)C(NC(=O)C5NC(=O)C(CC(N)=O)NC(=O)C(NC(=O)Cc5c(F)c(F)c(F)c(F)c5F)C(O)c5ccc(c(Cl)c5)O4)c4ccc(O)c(c4)-c4c(O)cc(O)cc4C(C(=O)O)NC3=O)OC(CO)C(O)C2O)CC(C)(NCc2ccc(-c3ccc(Cl)cc3)cc2)C1O` (stereo not drawn) [Compound 310], the “zone score, S. epidermidis ATCC 12228” value in experiment [1] came out at 2. Besides, the “zone score, E. faecalis CL 4877” value in the experiment on E. faecalis (CL 4877) is recorded as 2.

For `CC(NC=O)C(=O)NC1C(=O)NC(CC(N)=O)C(=O)NC2C(=O)NC3C(=O)NC(C(=O)NC(C(=O)O)c4cc(O)cc(O)c4-c4cc3ccc4O)C(O)c3ccc(c(Cl)c3)Oc3cc2cc(c3OC2OC(CO)C(O)C(O)C2OC2CC(C)(NCc3ccc(-c4ccc(Cl)cc4)cc3)C(O)C(C)O2)Oc2ccc(cc2Cl)C1O` (mixture of isomers) [Compound 325], the “zone score, S. epidermidis ATCC 12228” value in experiment [1] is on record as 2. Moreover, the “zone score, E. faecalis CL 4877” value in the experiment with E. faecalis (CL 4877) amounted to 2.

On to `CC1OC(OC2C(Oc3c4cc5cc3Oc3ccc(cc3Cl)C(O)C3NC(=O)C(NC(=O)C5NC(=O)C(CC(N)=O)NC(=O)C(NC(=O)c5cccs5)C(O)c5ccc(c(Cl)c5)O4)c4ccc(O)c(c4)-c4c(O)cc(O)cc4C(C(=O)O)NC3=O)OC(CO)C(O)C2O)CC(C)(NCc2ccc(-c3ccc(Cl)cc3)cc2)C1O` (stereo not drawn) [Compound 319], for which the “zone score, S. epidermidis ATCC 12228” value in experiment [1] is listed as 2. In addition, the “zone score, E. faecalis CL 4877” value in the experiment with E. faecalis (CL 4877) is on record as 2.
